Experimental data reported in PubChem BioAssay AID330 (DTP/NCI, 2004).
“And” between values parts separate entries of the source, which are not always exact repeats. Equal values may be shown once. Inconclusive results and toxic doses are left out. How the source made its calls: active means survival T/C of 150% or more; inactive means T/C below 125% in these data.

Test system: P388 leukemia ip, CD2F1 mice, survival T/C
Assay: NCI In Vivo Anticancer Drug Screen. Data for tumor model P388 Leukemia (intraperitoneal) in CD2F1 (CDF1) mice
Settings: endpoint: median survival time, higher = longer survival
Summary of the method: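 Mice carrying the transplanted tumor received test compound or vehicle. Survival was recorded in each group, and the value is the treated-group measurement divided by that of the vehicle-treated control group.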

[1] = dose: 25.0 mg/kg/injection, schedule: Q01DX009 (ip), vehicle: Klucel (hydroxypropylcellulose) (HPC)
[2] = dose: 50.0 mg/kg/injection, schedule: Q01DX009 (ip), vehicle: Klucel (hydroxypropylcellulose) (HPC)
[3] = dose: 50.0 mg/kg/injection, schedule: Q01DX005 (ip), vehicle: Klucel (hydroxypropylcellulose) (HPC)
[4] = dose: 100.0 mg/kg/injection, schedule: Q01DX005 (ip), vehicle: Klucel (hydroxypropylcellulose) (HPC)
[5] = dose: 12.5 mg/kg/injection, schedule: Q01DX009 (ip), vehicle: Klucel (hydroxypropylcellulose) (HPC)
[6] = dose: 50.0 mg/kg/injection, schedule: Q01DX005 (ip), vehicle: saline with Tween-80
[7] = dose: 100.0 mg/kg/injection, schedule: Q01DX005 (ip), vehicle: saline with Tween-80
[8] = dose: 100.0 mg/kg/injection, schedule: Q04DX003 (ip), vehicle: saline
[9] = dose: 200.0 mg/kg/injection, schedule: Q04DX003 (ip), vehicle: saline
[10] = dose: 400.0 mg/kg/injection, schedule: Q04DX003 (ip), vehicle: saline
[11] = dose: 50.0 mg/kg/injection, schedule: Q01DX009 (ip), vehicle: saline
[12] = dose: 100.0 mg/kg/injection, schedule: Q01DX009 (ip), vehicle: saline
[13] = dose: 200.0 mg/kg/injection, schedule: Q01DX005 (ip), vehicle: saline with Tween-80
[14] = dose: 50.0 mg/kg/injection, schedule: Q01DX009 (ip), vehicle: saline with Tween-80

Measured: T/C

C=CCn1c(=O)c2[nH]c(Cl)nc2n(CC=C)c1=O
inactive: [1] 105 % of control | [2] 100 % of control | dose: 100.0 mg/kg/injection, schedule: Q01DX009 (ip), vehicle: Klucel (hydroxypropylcellulose) (HPC) 108 % of control

CC(C)(C)c1cc2c(c(C(C)(C)OC(=O)c3ccccc3)c1)SOC2(C)C
inactive: dose: 12.5 mg/kg/injection, schedule: Q01DX005 (ip), vehicle: saline 101 % of control | dose: 12.5 mg/kg/injection, schedule: Q01DX005 (ip), vehicle: suspension in saline 102 % of control | dose: 25.0 mg/kg/injection, schedule: Q01DX005 (ip), vehicle: saline 91 % of control | dose: 25.0 mg/kg/injection, schedule: Q01DX005 (ip), vehicle: suspension in saline 100 % of control | [3] 100 % of control | dose: 50.0 mg/kg/injection, schedule: Q01DX005 (ip), vehicle: saline 100 % of control | dose: 50.0 mg/kg/injection, schedule: Q01DX005 (ip), vehicle: suspension in saline 106 % of control | [4] 104 % of control | dose: 100.0 mg/kg/injection, schedule: Q01DX005 (ip), vehicle: saline 98 % of control | dose: 100.0 mg/kg/injection, schedule: Q01DX005 (ip), vehicle: suspension in saline 102 % of control

CC1(C)Nc2cc3c(cc2-n2cccc21)oc1ccccc13
inactive: dose: 12.5 mg/kg/injection, schedule: Q01DX005 (ip), vehicle: Klucel (hydroxypropylcellulose) (HPC) 111 % of control | dose: 25.0 mg/kg/injection, schedule: Q01DX005 (ip), vehicle: Klucel (hydroxypropylcellulose) (HPC) 99 % of control | dose: 50.0 mg/kg/injection, schedule: Q01DX005 (ip), vehicle: DMSO 100 % of control | [3] 105 % of control | dose: 100.0 mg/kg/injection, schedule: Q01DX005 (ip), vehicle: DMSO 95 % of control | [4] 101 % of control | dose: 200.0 mg/kg/injection, schedule: Q01DX005 (ip), vehicle: DMSO 96 % of control | dose: 200.0 mg/kg/injection, schedule: Q01DX005 (ip), vehicle: Klucel (hydroxypropylcellulose) (HPC) 111 % of control | dose: 400.0 mg/kg/injection, schedule: Q01DX005 (ip), vehicle: DMSO 100 % of control | dose: 800.0 mg/kg/injection, schedule: Q01DX005 (ip), vehicle: DMSO 98 % of control

COc1ccc(C(=O)N2C=CC(=Cc3ccccc3)C=C2)cc1
inactive: dose: 6.25 mg/kg/injection, schedule: Q01DX009 (ip), vehicle: Klucel (hydroxypropylcellulose) (HPC) 103 % of control | [5] 102 % of control | [1] 97 % of control

O=C(O)c1c(Cl)c(Cl)c(Cl)c(Cl)c1-c1c2cc(Br)c(=O)c(Br)c-2oc2c(Br)c(O)c(Br)cc12
inactive: [6] 89 % of control | [7] 90 % of control

O=C(NN=C1c2ccccc2-c2ccccc21)C(F)(F)F
inactive: dose: 50.0 mg/kg/injection, schedule: Q01DX005 (ip), vehicle: Klucel + Tween-80 100 % of control | dose: 100.0 mg/kg/injection, schedule: Q01DX005 (ip), vehicle: Klucel + Tween-80 100 % of control | dose: 200.0 mg/kg/injection, schedule: Q01DX005 (ip), vehicle: Klucel + Tween-80 100 % of control

CC(O)(CCO)CCO
inactive: dose: 25.0 mg/kg/injection, schedule: Q01DX005 (ip), vehicle: water 98 % of control | dose: 50.0 mg/kg/injection, schedule: Q01DX005 (ip), vehicle: water 100 % of control | dose: 100.0 mg/kg/injection, schedule: Q01DX005 (ip), vehicle: water 98 % of control | dose: 200.0 mg/kg/injection, schedule: Q01DX005 (ip), vehicle: water 99 % of control | dose: 400.0 mg/kg/injection, schedule: Q01DX005 (ip), vehicle: water 99 % of control

CC(=O)OC1COC(n2cnc3c(Cl)nc(Cl)nc32)C(OC(C)=O)C1OC(C)=O (stereo unspecified)
inactive: [3] 107 % of control | [4] 108 % of control

O=C1OCCOCCOCCOCCOC1=O
inactive: [8] 96 % of control | [9] 101 % of control | [10] 104 % of control

C[N+]1(CC2CC2)C2CC(OC(=O)C(CO)c3ccccc3)CC1C1OC12 (stereo unspecified)
inactive: [11] 99 % of control | [12] 96 % of control

NCCCCC(C(=O)NC(Cc1ccc(O)cc1)C(=O)NC(CO)C(=O)OCc1ccc([N+](=O)[O-])cc1)N(C(=O)OCc1ccccc1)C(=O)OCc1ccccc1 (stereo unspecified)
inactive: [6] 101 % of control | [7] 100 % of control | [13] 97 % of control

O=C(O)CSc1cc2c3ccccc3sc2c2ccccc12
inactive: dose: 40.0 mg/kg/injection, schedule: Q01DX005 (ip), vehicle: Klucel (hydroxypropylcellulose) (HPC) 100 % of control | dose: 80.0 mg/kg/injection, schedule: Q01DX005 (ip), vehicle: Klucel (hydroxypropylcellulose) (HPC) 107 % of control | dose: 160.0 mg/kg/injection, schedule: Q01DX005 (ip), vehicle: Klucel (hydroxypropylcellulose) (HPC) 106 % of control

CCN(Cc1cccc(S(=O)(=O)O)c1)c1ccc(C(=C2C=CC(=[N+](CC)Cc3cccc(S(=O)(=O)O)c3)C=C2)c2ccc(O)c(S(=O)(=O)O)c2)cc1
inactive: [6] 97 % of control | [7] 99 % of control | [13] 100 % of control

CC[Si](CC)(CC)OC(C#N)c1ccc2c(c1)OCO2 (stereo unspecified)
inactive: [6] 104 % of control | [7] 104 % of control | [13] 100 % of control

COc1cc2c(cc1O)-c1c(cnn1-c1ccc([N+](=O)[O-])cc1[N+](=O)[O-])CCC2
inactive: [8] 100 % of control | [9] 99 % of control | [10] 96 % of control

CC1(C)NC1C(O)c1ccccc1 (stereo unspecified)
inactive: [11] 102 % of control | [12] 103 % of control | dose: 200.0 mg/kg/injection, schedule: Q01DX009 (ip), vehicle: saline 104 % of control

Clc1cc[c]([Sb]2([c]3ccc(Cl)cc3)([c]3ccc(Cl)cc3)[O]C(C(Cl)(Cl)Cl)[O]2)cc1 (stereo unspecified)
inactive: [5] 99 % of control | [1] 104 % of control | [2] 100 % of control and 95 % of control

O=[N+]([O-])c1ccc(S(=O)(=O)Nc2c([N+](=O)[O-])cc([N+](=O)[O-])c3ccccc23)cc1
inactive: dose: 50.0 mg/kg/injection, schedule: Q04DX003 (ip), vehicle: saline with Tween-80 92 % of control | dose: 100.0 mg/kg/injection, schedule: Q04DX003 (ip), vehicle: saline with Tween-80 95 % of control | dose: 200.0 mg/kg/injection, schedule: Q04DX003 (ip), vehicle: saline with Tween-80 105 % of control

CC1(c2ccc(Cl)cc2)NC(=O)N(CN2CCCCC2)C1=O (stereo unspecified)
inactive: dose: 12.5 mg/kg/injection, schedule: Q01DX009 (ip), vehicle: saline with Tween-80 100 % of control | dose: 25.0 mg/kg/injection, schedule: Q01DX009 (ip), vehicle: saline with Tween-80 100 % of control | [14] 100 % of control | dose: 50.0 mg/kg/injection, schedule: Q04DX003 (ip), vehicle: saline sonified 100 % of control | dose: 100.0 mg/kg/injection, schedule: Q04DX003 (ip), vehicle: saline sonified 107 % of control | dose: 200.0 mg/kg/injection, schedule: Q04DX003 (ip), vehicle: saline sonified 100 % of control

Cc1ccc(Nc2ccc(Nc3ccc(C)cc3)c3c2C(=O)c2cccc(O)c2C3=O)cc1
inactive: [14] 101 % of control | dose: 100.0 mg/kg/injection, schedule: Q01DX009 (ip), vehicle: saline with Tween-80 95 % of control | dose: 200.0 mg/kg/injection, schedule: Q01DX009 (ip), vehicle: saline with Tween-80 97 % of control

CC(=O)Nc1ccc(Nc2ccc(NCCO)c3c2C(=O)c2c(O)ccc(O)c2C3=O)cc1
inactive: dose: 25.0 mg/kg/injection, schedule: Q04DX002 (ip), vehicle: saline with Tween-80 96 % of control | dose: 50.0 mg/kg/injection, schedule: Q04DX002 (ip), vehicle: saline with Tween-80 96 % of control | dose: 100.0 mg/kg/injection, schedule: Q04DX002 (ip), vehicle: saline with Tween-80 100 % of control | dose: 200.0 mg/kg/injection, schedule: Q04DX002 (ip), vehicle: saline with Tween-80 100 % of control

CSc1cc(C)c(C#N)c(SC)n1
inactive: [6] 92 % of control | [7] 89 % of control | [13] 99 % of control

Cc1ccc(C(C(=O)O)(c2ccc(C)cc2)C(O)C(=O)O)cc1 (stereo unspecified)
inactive: dose: 100.0 mg/kg/injection, schedule: Q01DX001 (ip), vehicle: Klucel (hydroxypropylcellulose) (HPC) 107 % of control | dose: 200.0 mg/kg/injection, schedule: Q01DX001 (ip), vehicle: Klucel (hydroxypropylcellulose) (HPC) 107 % of control | dose: 400.0 mg/kg/injection, schedule: Q01DX001 (ip), vehicle: Klucel (hydroxypropylcellulose) (HPC) 105 % of control
